What was measured:
Type in all cases: in vivo, mouse
[1] = test system: MLL-AF9 induced AML; assay: MLL-AF9 BMT assay, leukemic burden (spleen weight, WBC); details: FoxO1/3/4 floxed
Method: MLL-AF9-positive FoxO1/3/4^floxed murine bone marrow (BM) cell recovered from a leukemic primary recipient mousecarrying the Mx1-Cre transgene (Mx1-Cre+) or not (Mx1-Cre−) were transplanted into sub-lethally irradiated secondary recipient mice. Fourteen days following transplant 50% of both Mx1-Cre+ and Mx1-Cre− mice were administered pI-pC and the remaining 50% of mice from each condition were given saline. At the first sign of leukemia all mice from each Mx1-Cre condition status were euthanized (Day 29 for Mx1-Cre−(saline and pI-pC treated) and Day 39 for Mx1-Cre+ (saline & pI-pC-treated)).
(§1) After transduction, infected cells were transplanted into lethally irradiated (2 doses of 450rad gIR separated by 12 hours) F1 FVB/C57/Bl6 mice. Recipient mice developed leukemia within 70-80 days with a median survival of 77 days. Mononuclear BM cells recovered from leukemic mice were then transplanted into secondary sub-lethally irradiated recipients. Fourteen days following transplant, secondary recipients were administered intra-peritoneally three doses of saline or 12.5 mg/kg pI-pC (GE Healthcare Life Sciences) every 2 days. Mice were then monitored for external (i.e. moribund) and internal (white blood cell counts) signs of leukemia.
To address whether FoxO1/3/4 are essential to maintain MLL-AF9 induced AML in vivo, a MLL-AF9 bone marrow transplant (BMT) assay was used in a mouse bearing homozygous Lox-P flanked (floxed) alleles of FoxO1/3/4 and the interferon-inducible Mx1-Cre transgene (FoxO1/3/4^floxed; Mx1-Cre+; MLL-AF9). MLL-AF9 transformed FoxO1/3/4^floxed BM cells without the Mx1-Cre transgene (FoxO1/3/4^floxed; Mx1-Cre−; MLL-AF9) were used as controls. Leukemia cells from each context (recovered from primary recipients displaying frank leukemia) were harvested and transplanted into sub-lethally irradiated recipients. Fourteen days post-transplant, secondary recipients receiving FoxO1/3/4^floxed; Mx1-Cre+; MLL-AF9 cells or FoxO1/3/4^floxed; Mx1-Cre−; MLL-AF9 controls were either administered polyinosine-polycytidyline (pI-pC) to induce excision of FoxO1/3/4 floxed alleles or saline control (FIG. 9A). At the first presentation of AML, all mice from each group (Mx1-Cre− versus Mx1-Cre+) were euthanized and assessed for leukemic burden as defined by spleen weight and peripheral white blood cell (WBC) counts. […] In contrast, pI-pC-treated FoxO1/3/4^floxed; Mx1-Cre+; MLL-AF9 transplant mice retained normal spleen weights and WBC counts (FIGS. 9B-D and 10A).

[2] = test system: leukemia-initiating cell (LIC); assay: Limited dilution assay of LIC function in tertiary recipients
Excerpt: Using the same experimental set-up described in panels G leukemia BM cells Saline (MLL-AF9; FoxO1/3/4^+/+, panel H) versus pI-pC (MLL-AF9; FoxO1/3/4^Δ/Δ, panel I) were by isolated by flow cytometry and subsequently transplanted into tertiary recipients at various cell numbers: 300 (n=6), 3,000 (n=6), 30,000 (n=4) and 300,000 (n=4). Animals were then monitored weekly and euthanized upon presentation of external (moribund) and internal (e.g. WBC) signs of AML. The LIC frequencies of each condition are located in the bottom left corner (H. LICfreq^+/+=1:20,688 and I. LICfreq^Δ/Δ=1: 269,310).
As described in FIG. 5, MLL-AF9-induced AML was generated in a FoxO1/3/4^floxed; Mx1-Cre+ genetic background that was subsequently transplanted into secondary mice. Fourteen days post-transplant, secondary recipients were administered with saline or pI-pC and monitored for the development of AML (FIG. 5). BM cells recovered from saline (Ctrl) and pI-pC treated mice that succumbed to AML were then transplanted into tertiary recipients and evaluated for the development of AML (p=0.0061; n=8).
Log-Rank (Mantel-Cox) test was used to determine p values for all Kaplan-Meier survival curve analyses. Unpaired, two-tailed student's t tests were used for all analyses comparing two experimental groups. Poisson statistics was used to determine the leukemia-initiating cell frequency in vivo in FIGS. 9H and 9I as well as in vitro in FIGS. 4E and 4F.
To test whether loss of FoxO1/3/4 also diminished LIC function, a limited dilution assay was performed for leukemia cells immediately following FoxO1/3/4 deletion. Briefly, equal numbers of leukemic BM cells were recovered from FoxO1/3/4^floxed; Mx1-Cre+; MLL-AF9 mice seven days following pI-pC or saline treatment. Recipient mice were then injected with 300, 3,000, 30,000 or 300,000 cells of each condition. Ninety days following transplantation, 100%, 75% and 17% of mice that received 300,000, 30,000 or 3,000 cells, respectively, from saline-treated FoxO1/3/4^floxed; Mx1-Cre+; MLL-AF9 succumbed to AML corresponding to a LIC frequency of 1:20,688 (FIG. 9H). In contrast, 75% of mice transplanted with 300,000 pI-pC-treated FoxO1/3/4^floxed; Mx1-Cre+; MLL-AF9 donor cells developed AML whereas 100% of mice from each other cell dose were alive at day 90.

[3] = test system: MLL-AF9 induced AML; assay: MLL-AF9 BMT assay, WBC monitoring and survival/latency
Excerpt: WBC analysis of peripheral blood collected every 4-14 days post-transplant from Mx1-Cre+ saline and pI-pC-treated mice. Data is independent from Panel C (n=4).
Kaplan-Meier survival curve analysis of recipient mice Mx1-Cre− transplanted and treated as described above; n=6, p=0.6899.
Kaplan-Meier survival curve analysis of recipient mice Mx1-Cre+ transplanted and treated as described above. (p=0.0009; n=10).
as §1
To distinguish whether disrupting FoxO1/3/4 expression eliminated MLL-AF9 leukemia or merely delayed the onset, FoxO1/3/4^floxed; Mx1-Cre−; MLL-AF9 and FoxO1/3/4^floxed; Mx1-Cre+; MLL-AF9 leukemic cells were separately transplanted into sub-lethally irradiated recipients. Fourteen days post-transplant, mice were administered either pI-pC or saline and subsequently monitored daily for clinical signs of leukemia. Peripheral blood from recipient mice was collected and analyzed for WBC counts every 4-14 days. Mice were euthanized upon displaying external morbidity and/or elevated WBC counts. […] However, despite efficient excision of FoxO1/3/4 (FIGS. 10C-10F) the majority of mice eventually succumbed to leukemia (FIG. 9F).

[4] = Mx1-Cre+, MLL-AF9 mice, pI-pC induces excision of FoxO1/3/4

polyinosine-polycytidyline [pI-pC]
WBC counts [1, 4]: normal | spleen weights [1, 4]: normal | lymphoid-myeloid ratio in peripheral blood ([1]; Mx1-Cre+, MLL-AF9 mice, data not shown): normal lymphoid-myeloid ratio | splenomegaly and leukocytosis ([1]; Mx1-Cre−, MLL-AF9 recipients (no excision)): developed splenomegaly and leukocytosis | increase in median survival ([2]; 300,000 donor cells, pI-pC vs saline-treated): ~2 fold | median survival ([2]; 300,000 pI-pC-treated donor cells, n=4): 82 days | mice that developed AML ([2]; 300,000 pI-pC-treated donor cells, ninety days following transplantation): 75% | mice alive at day 90 ([2]; each other cell dose (300, 3,000, 30,000) of pI-pC-treated donor cells): 100% | LIC frequency lower than the control group ([2]; pI-pC vs saline): 13 fold | latency in recipients of donor cells from mice of FIG. 9F ([2]; pI-pC vs saline-treated donors (FIG. 10B)): extended latency | latency for the onset of AML ([3]; Mx1-Cre+ leukemic cells, excision of FoxO1/3/4): significantly longer latency | WBC counts ([3]; Mx1-Cre+ mice, blood every 4-14 days): lower WBC counts than saline-treated controls | mice disease-free up to 5 months post-excision ([3]; Mx1-Cre+, n=10): 20%

Reference: patent US20140206624A1, “TREATMENT OF LEUKEMIA” (THE BRIGHAM AND WOMEN'S HOSPITAL, INC., priority 2011, published 2014)
